Assay results published in the NIST ThermoML archive (doi:10.1016/j.jct.2015.06.015).
Numbers after ± are expanded uncertainties.

Conditions: Crystal; DTA

| Triple point temperature | SMILES |
| --- | --- |
| 1074 ± 0.6 K | [Cl-].[Na+] [sodium chloride] |
| 832 ± 0.6 K | [Ag][I] [silver iodide] |
